One data set has as its target telomerase (Homo sapiens, UniProt O14746). Description: Modified telomeric repeat amplification protocol (TRAP) assay, cell-free. Format: biochemical. Particulars: extracts from A2780 cells, tested as salts, read-out: telIC50 (Telomerase Inhibitory Activity). As to the method:
The ability of compounds to inhibit telomerase in a cell-free assay was assessed with a modified TRAP assay using extracts from exponentially growing A2780 human ovarian carcinoma cells. The TRAP assay was performed in 2 steps: (a) telomerase-mediated extension of the forward primer (TS: 5′-AATCCGTCGAGCAGAGTT (SEQ ID NO:3), Oswel Ltd., Southampton, UK) contained in a 40 µL reaction mix comprising TRAP buffer (20 mM Tris-HCl (pH 8.3), 68 mM KCl, 1.5 mM MgCl2, 1 mM EGTA, 0.05% v/v Tween 20), 0.05 μg bovine serum albumin, 50 μM of each deoxynucleotide triphosphate, 0.1 μg TS primer, and 3 μCi of [α-^32P]dCTP (Amersham plc, UK). Protein (40 ng or 20 ng) was then incubated with the reaction mix+agent (acid addition and quaternary dimethiodide salts) at final concentrations of up to 50 μM for 20 min at 25° C. A lysis buffer (no protein) control, heat-inactivated protein control, and 50% protein (20 ng or 10 ng) control were included in each assay; and (b) while heating at 80° C. in a PCR block of a thermal cycler (Hybaid, UK) for 5 min to inactivate telomerase activity, 0.1 μg of reverse CX primer (3′-[…]-5′ (SEQ ID NO:4)) and 2 Units of Taq DNA polymerase (“red hot”, Advanced Biotechnologies) were added. A 3-step PCR was then performed: 94° C. for 30 s, 50° C. for 30 s, and 72° C. for 1 min for 31 cycles. Telomerase-extended PCR products in the presence or absence of compounds were then determined either by electrophoretic separation using 8% w/w acrylamide denaturing gels and analysis by phosphorimaging or autoradiography, or by harvesting on Whatman filters (25 mm glass microfibre) and analysis by liquid scintillation counting.

Data set [1] is described as follows: Growth inhibition, sulforhodamine B (SRB) assay, A2780. Type of data set: cell-based. To be noted: human, A2780 ovarian carcinoma cells, A2780, 96 hr incubation, tested as salts, read-out: Cytotoxicity - IC50 A2780. As to the method: (§1) Growth inhibition was measured in three human ovarian carcinoma cell lines (A2780, CH1, and SKOV-3) and one human cervix carcinoma cell line (A431) using the sulforhodamine B (SRB) assay. Briefly, between 3000 and 6000 cells were seeded into the wells of 96-well microtiter plates and allowed to attach overnight. Compounds (acid addition and quaternary dimethiodide salts) were dissolved at 500 μM in water and immediately added to wells in quadruplicate at final concentrations of 0.05, 0.25, 1, 5 and 25 μM. Following an incubation period of 96 hr, remaining cells were fixed with ice-cold 10% w/v trichloroacetic acid (30 min) and stained with 0.4% SRB in 1% v/v acetic acid (15 min). Mean absorbance at 540 nm for each drug concentration was expressed as a percentage of the control untreated well absorbance, and IC50 values (concentration required to inhibit cell growth by 50%) were determined for each agent.
Background: Sulforhodamine B stains cellular protein and so reports cell mass.

A short description of data set [2]: Growth inhibition, sulforhodamine B (SRB) assay, CH1. Format: cell-based. Particulars: human, CH1 ovarian carcinoma cells, CH1, 96 hr incubation, tested as salts, read-out: Cytotoxicity - IC50 CH1. As to the method: as §1
Data set [3] can be described thus: Growth inhibition, sulforhodamine B (SRB) assay, SKOV-3. Type of data set: cell-based. Particulars: human, SKOV-3 ovarian carcinoma cells, SKOV-3, 96 hr incubation, tested as salts, read-out: Cytotoxicity - IC50 SKOV-3. On the procedure: as §1
Data set [4] is described as follows: Growth inhibition, sulforhodamine B (SRB) assay, A431. Format: cell-based. Particulars: human, A431 cervix carcinoma cells, A431, 96 hr incubation, tested as salts, read-out: Cytotoxicity - IC50 A431. As to the method:
as §1

Molecules are shown by their SMILES.

Chain of telomerase (O14746 whole entry): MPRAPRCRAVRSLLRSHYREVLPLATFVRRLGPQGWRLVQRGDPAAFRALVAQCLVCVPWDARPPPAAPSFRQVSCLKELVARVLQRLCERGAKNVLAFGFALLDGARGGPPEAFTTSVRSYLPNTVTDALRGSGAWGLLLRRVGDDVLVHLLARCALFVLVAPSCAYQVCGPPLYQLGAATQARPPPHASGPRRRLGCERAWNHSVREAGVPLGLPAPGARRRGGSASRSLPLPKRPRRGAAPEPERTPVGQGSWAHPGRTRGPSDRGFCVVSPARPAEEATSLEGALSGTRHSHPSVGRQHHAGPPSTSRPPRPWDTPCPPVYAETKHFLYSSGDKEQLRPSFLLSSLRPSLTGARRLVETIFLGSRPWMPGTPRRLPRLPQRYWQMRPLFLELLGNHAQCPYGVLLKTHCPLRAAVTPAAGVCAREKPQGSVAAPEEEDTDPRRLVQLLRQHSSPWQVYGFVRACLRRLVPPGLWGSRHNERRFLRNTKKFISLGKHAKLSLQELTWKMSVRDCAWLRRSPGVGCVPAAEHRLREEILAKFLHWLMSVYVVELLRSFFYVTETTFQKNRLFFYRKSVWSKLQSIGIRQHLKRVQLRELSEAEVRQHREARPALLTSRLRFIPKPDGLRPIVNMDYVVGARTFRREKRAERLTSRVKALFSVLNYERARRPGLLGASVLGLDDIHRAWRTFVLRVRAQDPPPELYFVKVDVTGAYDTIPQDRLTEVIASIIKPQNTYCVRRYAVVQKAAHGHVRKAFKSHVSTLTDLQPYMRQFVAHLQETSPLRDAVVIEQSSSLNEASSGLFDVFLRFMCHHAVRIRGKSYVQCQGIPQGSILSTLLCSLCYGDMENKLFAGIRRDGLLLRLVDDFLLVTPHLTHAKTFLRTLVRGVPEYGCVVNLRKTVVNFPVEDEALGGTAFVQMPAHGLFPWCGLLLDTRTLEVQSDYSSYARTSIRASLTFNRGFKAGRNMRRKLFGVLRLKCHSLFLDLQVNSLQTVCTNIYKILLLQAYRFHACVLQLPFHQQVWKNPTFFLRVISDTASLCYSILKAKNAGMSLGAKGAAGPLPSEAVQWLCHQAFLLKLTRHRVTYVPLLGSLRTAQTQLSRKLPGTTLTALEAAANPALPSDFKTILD

`O=C(CCN1CCCC1)Nc1ccc2c(=O)c3ccc(NC(=O)CCN4CCCC4)cc3[nH]c2c1` [BR-ACO-4, 3,6-Bis[3-(pyrrolidino)propionamido]-9(10H)-acridone]: at telomerase, the IC50 was 8 µM. Also, the IC50 at 96 h in data set [1], in data set [2] and in data set [3] was over 25 µM throughout.
Consider `O=C(CCN1CCCCC1)Nc1ccc2c(=O)c3ccc(NC(=O)CCN4CCCCC4)cc3[nH]c2c1` [BR-ACO-5, 3,6-Bis[3-(piperidino)propionamido]-9(10H)-acridone], for which the IC50 on telomerase is 5.9 µM. Besides, the IC50 at 96 h worked out at 19 µM in data set [1], 13 µM in data set [2] and 21 µM in data set [3].
In the case of `CN(C)CCC(=O)Nc1ccc2c(=O)c3ccc(NC(=O)CCN(C)C)cc3[nH]c2c1` [BR-ACO-6, 3,6-Bis[3-(dimethylamino)propionamido]-9(10H)-acridone], at telomerase, the IC50 turned out to be 4.3 µM. The IC50 at 96 h in data set [1], in data set [2] and in data set [3] was over 25 µM throughout.
Consider `CCN(CC)CCC(=O)Nc1ccc2c(=O)c3ccc(NC(=O)CCN(CC)CC)cc3[nH]c2c1` [BR-ACO-7, 3,6-Bis[3-(diethylamino)propionamido]-9(10H)-acridone], for which, at telomerase, the IC50 came to 5.7 µM. Also, the IC50 at 96 h in data set [1], in data set [2] and in data set [3] was over 25 µM throughout.
As for `O=C(CCN1CCOCC1)Nc1ccc2c(O)c3ccc(NC(=O)CCN4CCOCC4)cc3nc2c1` [BR-ACO-8, 3,6-Bis[3-(morpholino)propionamido]-9(10H)-acridone], the IC50 at telomerase came to 49 µM. Moreover, the IC50 at 96 h in data set [1], in data set [2] and in data set [3] was over 25 µM throughout.
Consider `O=C(CCN1CCCC1)Nc1ccc2nc3ccc(NC(=O)CCN4CCCC4)cc3c(O)c2c1` [BR-ACO-9, 2,7-Bis[3-(pyrrolidino)propionamido]-9(10H)-acridone], for which the IC50 on telomerase worked out at 2.8 µM. In addition, the IC50 at 96 h in data set [1], in data set [2] and in data set [3] was over 25 µM each time.
For the compound `O=C(CCN1CCCCC1)Nc1ccc2nc3ccc(NC(=O)CCN4CCCCC4)cc3c(O)c2c1` [BR-ACO-10, 2,7-Bis[3-(piperidino)propionamido]-9(10H)-acridone], at telomerase, the IC50 was found to be 5.8 µM. Moreover, the IC50 at 96 h in data set [1], in data set [2] and in data set [3] was over 25 µM each time.
Take `CC1CCN(CCC(=O)Nc2ccc3c(=O)c4ccc(NC(=O)CCN5CCC(C)CC5)cc4[nH]c3c2)CC1` [BR-ACO-33, 3,6-Bis[3-(4-methylpiperidino)propionamido]-9(10H)-acridone]: the IC50 on telomerase stood at 1.9 µM. Further, the IC50 at 96 h in data set [1] stood at 3 µM; in data set [2] it was 3 µM; in data set [3], 5.6 µM.
Take `O=C(CCN1CCC(O)CC1)Nc1ccc2c(O)c3ccc(NC(=O)CCN4CCC(O)CC4)cc3nc2c1` [BR-ACO-34, 3,6-Bis[3-(4-hydroxypiperidino)propionamido]-9(10H)-acridone]: the IC50 at telomerase is 1.8 µM. For the same compound, the IC50 at 96 h in data set [1], in data set [2] and in data set [3] was over 25 µM throughout.
With `CC1CCCCN1CCC(=O)Nc1ccc2c(=O)c3ccc(NC(=O)CCN4CCCCC4C)cc3[nH]c2c1` (stereo not shown) [BR-ACO-36, 3,6-Bis[3-(2-methylpiperidino)propionamido]-9(10H)-acridone], the IC50 on telomerase is 3.3 µM. Further, the IC50 at 96 h came out at 13 µM in data set [1], 11.8 µM in data set [2] and 12 µM in data set [3].
Turning to `CCC1CCCCN1CCC(=O)Nc1ccc2c(=O)c3ccc(NC(=O)CCN4CCCCC4CC)cc3[nH]c2c1` (stereo not shown) [BR-ACO-37, 3,6-Bis[3-(2-ethylpiperidino)propionamido]-9(10H)-acridone], on telomerase, the IC50 came out at 1.6 µM. The figures for the IC50 at 96 h in data set [1], in data set [2] and in data set [3] were 11.8 µM, 11 µM and 10.5 µM, respectively.
Taken in the same sequence, the figures for `CCN1CCN(CCC(=O)Nc2ccc3c(=O)c4ccc(NC(=O)CCN5CCN(CC)CC5)cc4[nH]c3c2)CC1` [BR-ACO-39] were 0.74 µM, over 25 µM, over 25 µM and over 25 µM.
As to `O=C(CCN1CCCC1)Nc1ccc2c(Nc3ccc(F)cc3)c3ccc(NC(=O)CCN4CCCC4)cc3nc2c1` [JC-ACI-3, N-{9-[4′-Fluorophenylamino]}-3,6-bis(3-pyrrolidinopropionamido)acridine], the IC50 at telomerase came to 0.07 µM. Also, in data set [4], the IC50 at 96 h was 2.5 µM.
Turning to `CSc1ccccc1Nc1c2ccc(NC(=O)CCN3CCCC3)cc2nc2cc(NC(=O)CCN3CCCC3)ccc12` [JC-ACI-4, N-{9-[2′-(Methylsulfanyl)phenylamino]}-3,6-bis(3-pyrrolidinopropionamido)acridine], on telomerase, the IC50 stood at 0.15 µM. Besides, the IC50 at 96 h in data set [4] turned out to be 2.5 µM.
With `CSc1cccc(Nc2c3ccc(NC(=O)CCN4CCCC4)cc3nc3cc(NC(=O)CCN4CCCC4)ccc23)c1` [JC-ACI-5, N-{9-[3′-Methylsulfanyl-phenylamino]}-3,6-bis(3-Pyrrolidinopropionamido)acridine], on telomerase, the IC50 worked out at 0.1 µM. Further, the IC50 at 96 h in data set [1] is 2.8 µM; in data set [2] it was 0.6 µM; in data set [4], 1.3 µM; in data set [3], 3.2 µM.
On to `O=C(CCN1CCCC1)Nc1ccc(Nc2c3ccc(NC(=O)CCN4CCCC4)cc3nc3cc(NC(=O)CCN4CCCC4)ccc23)cc1` [JC-ACI-9, N-{9-[4′-(3-Pyrrolidin-1-yl-propionylamino)-phenylamino]}-3,6-bis(3-pyrrolidinopropionamido)acridine], for which the IC50 at telomerase came to 0.012 µM. Also, the IC50 at 96 h in data set [1] was over 25 µM; in data set [2], 20 µM; in data set [4], 20 µM; in data set [3], over 25 µM.
`CN(C)CCCNc1c2ccc(NC(=O)CCN3CCCC3)cc2nc2cc(NC(=O)CCN3CCCC3)ccc12` [JH-ACI-65, N-{9-[3-(N,N-Dimethyl)aminopropylamino]}-3,6-bis(3-pyrrolidinopropionamido)acridine]: on telomerase, the IC50 was 0.06 µM. In addition, the IC50 at 96 h was over 25 µM in data set [1], 17 µM in data set [2], over 25 µM in data set [4] and 15.8 µM in data set [3].
Turning to `O=C(CCN1CCCC1)Nc1ccc2c(NCCN3CCCCC3)c3ccc(NC(=O)CCN4CCCC4)cc3nc2c1` [JH-ACI-69, N-[9-(2-Piperidin-1-yl-ethylamino)]-3,6-bis(3-pyrrolidinopropionamido)acridine], the IC50 at telomerase came out at 0.05 µM. For the same compound, the IC50 at 96 h in data set [1] was 12.6 µM; in data set [2], over 25 µM; in data set [4] it was 11.2 µM; in data set [3], over 25 µM.
With `Nc1cccc(Nc2c3ccc(NC(=O)CCN4CCCC4)cc3nc3cc(NC(=O)CCN4CCCC4)ccc23)c1` [JH-ACI-74, N-{9-[3′-(Amino)phenylamino]}-3,6-bis(3-pyrrolidinopropionamido)acridine], the IC50 at telomerase is 0.06 µM. Further, the IC50 at 96 h in data set [1] was 12.6 µM; in data set [2], 15.8 µM; in data set [4], 12.6 µM; in data set [3], over 25 µM.
With `Nc1ccccc1Nc1c2ccc(NC(=O)CCN3CCCC3)cc2nc2cc(NC(=O)CCN3CCCC3)ccc12` [JH-ACI-76, N-[9-(2′-(Amino)phenylamino)]-3,6-bis(3-pyrrolidinopropionamido)acridine], the IC50 on telomerase was 0.02 µM. The IC50 at 96 h in data set [1] stood at 11 µM; in data set [2], 10 µM; in data set [4] it was 7.1 µM; in data set [3], 15.8 µM.
